Measured values taken from patent US9809623B2, “α4β7 peptide monomer and dimer antagonists” (Protagonist Therapeutics, Inc., priority 2014, dated 2017).
Where two headings read alike, the source gives them in different places. Numbered stars: 1 amine (or outer) side, 2 acyl side, 3 side chain; on linkers, the order of the positions; unused ones are H or OH. Bridge positions count the residues as written; N and C are the ends. Square brackets hold non-standard residues; d marks the D form. Peptide text beside a SMILES is read from it. I, II: the chains in the order shown. Phe(3-CONH2) = NC(=O)c1cccc(C[C@H](N)C(=O)O)c1; Phe(4-F) = N[C@@H](Cc1ccc(F)cc1)C(=O)O; 1Nal = N[C@@H](Cc1cccc2ccccc12)C(=O)O; 2Nal = N[C@@H](Cc1ccc2ccccc2c1)C(=O)O; Diglycolyl = O=C(COCC(=O)[*:2])[*:1]; NMeR = CN[C@@H](CCCNC(=N)N)C(=O)O; hPhe = N[C@@H](CCc1ccccc1)C(=O)O; β3hE = N[C@@H](CCC(=O)O)CC(=O)O; Cit = NC(=O)NCCC[C@H](N)C(=O)O; Pen = CC(C)(S)[C@H](N)C(=O)O; dNMeK = CN[C@H](CCCCN)C(=O)O

What was measured:
[1] = biological target: T1, rh integrin α4β7 (Homo sapiens, UniProt P13612+P26010); test: α4β7-MAdCAM Competition ELISA; format: binding; settings: Table 3-B, Potency (α4β7); range classes; read-out: α4β7 ELISA IC50
T1 construct: purchased R&D Systems 5397-A30
Method: A nickel coated plate (Pierce #15442) was coated with rh integrin α4β7 (R&D Systems #5397-A30) at 800 ng/well and incubated at room temperature with shaking for 1 hr. The solution was then removed by shaking and blocked with assay buffer (50 mM Tris-HCl pH7.6, 150 mM NaCl, 1 mM MnCl2 or MgCl2, 0.05% Tween-20 and 0.5% BSA) at 250 ul/well. The plate was then incubated at room temperature for 1 hr. Each well was washed 3 times with wash buffer (50 mM Tris-HCl pH7.6, 100 mM NaCl, 1 mM MnCl2 or MgCl2, 0.05% Tween-20). To each well was added 25 ul of a serial dilution (3-fold dilutions in assay buffer) of peptide starting at 20 μM. 25 ul of recombinant human MAdCAM-1 (R&D Systems #6056-MC) was then added to each well at a fixed concentration 20 nM. The final starting peptide concentration was 10 μM, and the final MAdCAM-1 concentration was 10 nM. The plates were then incubated at room temperature for 1 hr to reach binding equilibrium. The wells were then washed three times with wash buffer. 50 ul of mouse anti-human IgG1-HRP (Invitrogen # A10648) diluted in 1:2000 in assay buffer was then added to each well. The wells were incubated at room temperature for 45 min with shaking. The wells were then washed 3 times with wash buffer. 100 ul of 3,3′,5,5′-Tetramethylbenzidine (TMB) were then added to each well and closely observe during development time. The reaction was stopped with 2N H2SO4 and absorbance was read at 450 nm.
TMB is a chromogenic substrate suitable for use in ELISA procedures, which utilize horseradish peroxidase conjugates. This substrate produces a soluble end product that is blue in color and can be read spectrophotometrically at 370 or 655 nm. The reaction maybe stopped with 2 M H2S04, resulting in a yellow solution that is read at 450 nm. Each tablet contains 1 mg of TMB substrate. To prepare TMB Substrate Solution, dissolve one 3,3′,5,5′-tetramethylbenzidine tablet in 1 ml of DMSO and add to 9 ml of 0.05 M Phosphate-Citrate Buffer, pH 5.0. Add 2 μl of fresh 30% hydrogen peroxide (Product No. H 1009) per 10 ml of substrate buffer solution, immediately prior to use.

[2] = Simulated Intestinal Fluid (SIF) Stability Assay; format: in vitro ADME, porcine; settings: pig, pH 6.5, Table 3-B, > means experiment was stopped at that time and half life was not reached, read-out: Stabilty SIF t1/2
Method: Studies were carried out in simulated intestinal fluid (SIF) to evaluate intestinal stability of the peptide molecules of the instant invention. To prepare the SIF reagent, blank FASSIF was prepared by dissolving 0.348 g NaOH, 3.954 g sodium phosphate monobasic monohydrate and 6.186 g NaCl in a final volume of 1 liter water (final pH=6.5). To this solution, 24 g porcine pancreatin (Sigma catalog P7545) was added and stirred for 30 minutes (final pancreatin concentration is 2.4%). The solution was filtered through a cheese cloth and a No. 1 Whatman filter, and 10 ml aliquots were stored at −70° C. To run the reaction, a 10 ml aliquot was thawed at 37° C., and 125 ul aliquots were removed and mixed with an equal volume of blank FASSIF. The peptide stock solution (10 mM in 100% DMSO) was diluted 75-fold in blank FASSIF. A 50 μl aliquot of the diluted peptide was combined with 125 μl pancreatin (2.4%) and 125 μl blank FASSIF to yield final concentrations of 1% pancreatin and 22 μM peptide. The reactions were incubated at 37° C., and at various time points 50 μl aliquots were removed and added to 200 μl of quench solution containing 50% acetonitrile, 50% methanol, 5% formic acid, and 1 μg/ml internal standard. The quenched samples were centrifuged at 10,000 rpm for 10 minutes, and the supernatants were analyzed by LCMS/MS. The percent remaining at each time point was calculated based on the peak area response ratio of test to compound to internal standard. Half-lives were calculated by fitting to a first-order exponential decay equation using GraphPad.

[3] = biological target: α4β7 (Homo sapiens, UniProt P13612+P26010); test: α4β7-MAdCAM Cell Adhesion Assay (RPMI 8866 human cells); format: cell-based; set-up: host or cells: RPMI 8866 human B lymphoblastoid cells; settings: Table 3-B, Potency (α4β7); range classes; read-out: α4β7 cell (Hu) IC50
Method in brief: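 Adhesion read-out: MTT absorbance at 570 nm minus no-cell wells, after three washes. Plates coated with rh MAdCAM-1/Fc received peptide dilutions plus 200,000 RPMI 8866 cells in Mn2+ (1 mM)-supplemented DMEM, 0.1% BSA, HEPES pH 7, incubated 30-45 min, 37 °C.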

[4] = simulated intestinal fluid (SIF) with 1% porcine pancreatin

Sequence of α4β7 (P13612 34-1032): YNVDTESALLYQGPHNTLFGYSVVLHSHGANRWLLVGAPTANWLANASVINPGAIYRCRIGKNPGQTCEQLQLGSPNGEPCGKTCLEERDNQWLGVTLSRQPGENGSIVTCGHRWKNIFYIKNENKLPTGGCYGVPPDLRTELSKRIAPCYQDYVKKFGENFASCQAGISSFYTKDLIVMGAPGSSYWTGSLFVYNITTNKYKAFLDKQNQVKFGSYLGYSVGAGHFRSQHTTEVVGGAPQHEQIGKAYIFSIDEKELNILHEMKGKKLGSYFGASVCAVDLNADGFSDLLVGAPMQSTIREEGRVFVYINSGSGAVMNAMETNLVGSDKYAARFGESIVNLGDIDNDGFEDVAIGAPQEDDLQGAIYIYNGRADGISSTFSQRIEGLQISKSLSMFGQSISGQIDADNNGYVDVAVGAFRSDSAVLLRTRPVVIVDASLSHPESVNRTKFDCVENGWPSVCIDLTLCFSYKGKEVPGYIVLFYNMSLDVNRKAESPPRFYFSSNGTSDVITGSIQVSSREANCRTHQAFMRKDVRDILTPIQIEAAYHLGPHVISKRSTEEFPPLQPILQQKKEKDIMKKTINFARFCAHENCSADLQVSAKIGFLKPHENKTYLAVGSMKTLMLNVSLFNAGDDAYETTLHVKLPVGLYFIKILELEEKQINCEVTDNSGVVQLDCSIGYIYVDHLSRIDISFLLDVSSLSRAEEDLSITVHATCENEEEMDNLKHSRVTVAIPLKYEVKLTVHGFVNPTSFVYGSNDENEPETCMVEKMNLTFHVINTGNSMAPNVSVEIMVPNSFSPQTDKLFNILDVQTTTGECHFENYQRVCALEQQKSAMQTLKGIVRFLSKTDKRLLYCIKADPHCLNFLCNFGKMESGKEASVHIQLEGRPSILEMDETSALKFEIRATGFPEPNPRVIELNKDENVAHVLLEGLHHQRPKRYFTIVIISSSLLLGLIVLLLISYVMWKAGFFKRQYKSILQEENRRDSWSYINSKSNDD
Sequence of α4β7 (P26010 20-798): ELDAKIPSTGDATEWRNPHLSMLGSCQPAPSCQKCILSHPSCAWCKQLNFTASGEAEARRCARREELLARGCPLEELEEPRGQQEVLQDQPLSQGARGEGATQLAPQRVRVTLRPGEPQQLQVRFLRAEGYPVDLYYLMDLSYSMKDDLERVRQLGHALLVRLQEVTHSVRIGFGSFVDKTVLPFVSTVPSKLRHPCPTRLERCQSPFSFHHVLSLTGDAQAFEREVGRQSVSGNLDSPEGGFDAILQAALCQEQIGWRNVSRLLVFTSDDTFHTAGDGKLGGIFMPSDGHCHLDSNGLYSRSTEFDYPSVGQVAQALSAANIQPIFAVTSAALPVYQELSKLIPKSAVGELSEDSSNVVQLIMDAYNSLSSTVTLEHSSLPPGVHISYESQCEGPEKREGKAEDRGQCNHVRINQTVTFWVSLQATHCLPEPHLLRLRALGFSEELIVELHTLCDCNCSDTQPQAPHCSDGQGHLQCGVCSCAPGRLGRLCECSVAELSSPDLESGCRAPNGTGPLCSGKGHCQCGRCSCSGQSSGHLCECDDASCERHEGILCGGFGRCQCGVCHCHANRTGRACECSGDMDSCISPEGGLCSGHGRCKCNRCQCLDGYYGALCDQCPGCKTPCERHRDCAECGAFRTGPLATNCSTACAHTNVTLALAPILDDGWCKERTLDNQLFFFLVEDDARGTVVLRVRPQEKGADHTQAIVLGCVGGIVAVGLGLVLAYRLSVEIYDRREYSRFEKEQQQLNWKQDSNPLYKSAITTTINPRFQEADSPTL
T1 sequence (P13612 34-977 limits assumed): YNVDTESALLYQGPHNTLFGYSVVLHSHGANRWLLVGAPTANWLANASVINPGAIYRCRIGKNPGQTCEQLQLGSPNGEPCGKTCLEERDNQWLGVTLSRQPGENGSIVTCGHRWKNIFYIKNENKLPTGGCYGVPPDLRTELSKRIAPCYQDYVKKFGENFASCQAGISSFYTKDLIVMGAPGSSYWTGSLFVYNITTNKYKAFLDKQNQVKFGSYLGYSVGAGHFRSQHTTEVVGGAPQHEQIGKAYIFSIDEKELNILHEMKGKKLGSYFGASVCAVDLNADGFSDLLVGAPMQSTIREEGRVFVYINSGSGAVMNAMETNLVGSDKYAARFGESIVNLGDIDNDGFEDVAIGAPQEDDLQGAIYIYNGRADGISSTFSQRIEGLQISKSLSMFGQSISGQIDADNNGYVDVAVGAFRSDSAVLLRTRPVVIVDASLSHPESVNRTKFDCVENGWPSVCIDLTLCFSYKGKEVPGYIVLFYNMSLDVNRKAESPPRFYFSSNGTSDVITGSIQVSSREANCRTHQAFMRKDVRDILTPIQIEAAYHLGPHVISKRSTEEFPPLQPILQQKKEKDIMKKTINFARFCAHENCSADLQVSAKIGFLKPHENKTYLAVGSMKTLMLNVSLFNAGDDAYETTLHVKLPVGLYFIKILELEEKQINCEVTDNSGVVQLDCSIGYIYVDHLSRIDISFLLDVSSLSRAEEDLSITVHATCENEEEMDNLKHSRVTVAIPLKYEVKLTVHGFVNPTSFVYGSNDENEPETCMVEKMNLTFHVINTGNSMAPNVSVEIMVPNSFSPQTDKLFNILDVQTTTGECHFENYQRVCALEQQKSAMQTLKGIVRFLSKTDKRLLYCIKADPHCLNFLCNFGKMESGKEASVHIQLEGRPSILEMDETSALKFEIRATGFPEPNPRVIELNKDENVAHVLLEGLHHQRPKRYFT
T1 sequence (P26010 20-723 limits assumed): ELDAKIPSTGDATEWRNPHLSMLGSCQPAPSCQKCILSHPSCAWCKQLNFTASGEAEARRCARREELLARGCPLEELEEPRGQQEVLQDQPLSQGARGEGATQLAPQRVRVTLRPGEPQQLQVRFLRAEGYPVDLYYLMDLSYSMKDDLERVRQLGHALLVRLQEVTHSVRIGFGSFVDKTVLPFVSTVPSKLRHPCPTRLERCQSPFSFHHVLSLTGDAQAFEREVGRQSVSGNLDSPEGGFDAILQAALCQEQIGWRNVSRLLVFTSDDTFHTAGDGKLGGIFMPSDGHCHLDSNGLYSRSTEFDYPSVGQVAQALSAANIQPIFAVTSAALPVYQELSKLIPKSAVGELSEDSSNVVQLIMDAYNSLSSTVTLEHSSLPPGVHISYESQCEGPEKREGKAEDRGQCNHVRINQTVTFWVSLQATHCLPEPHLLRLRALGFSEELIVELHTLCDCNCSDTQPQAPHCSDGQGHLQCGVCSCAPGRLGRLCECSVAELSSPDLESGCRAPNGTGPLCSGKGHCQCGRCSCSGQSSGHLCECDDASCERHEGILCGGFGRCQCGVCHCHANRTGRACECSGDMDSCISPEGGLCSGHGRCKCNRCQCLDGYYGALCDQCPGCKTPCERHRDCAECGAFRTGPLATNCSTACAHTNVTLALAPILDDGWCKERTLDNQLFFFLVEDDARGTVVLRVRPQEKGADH

| Compound | IC50 [1] [nM] | half-life at 22 μM ([2]; simulated intestinal fluid (SIF) with porcine pancreatin) [h] | IC50 [3] [nM] | half-life at 22 μM [2, 4] [h] |
| --- | --- | --- | --- | --- |
| CC(=O)N[C@@H]1C(=O)N(C)[C@@H](CCCNC(=N)N)C(=O)N[C@@H](CO)C(=O)N[C@@H](CC(=O)O)C(=O)N[C@@H]([C@@H](C)O)C(=O)N[C@@H](CC(C)C)C(=O)N[C@H](C(=O)N[C@@H](CCc2ccccc2)C(=O)N[C@@H](CCC(=O)O)C(=O)N[C@H](CCCCN)C(N)=O)C(C)(C)SSC1(C)C [compound 19] (Ac-[Pen][NMeR]SDTL[Pen][hPhe]E[dK]-NH2; disulfide 1-7) | 10 to 25 | – | – | – |
| CC(=O)N[C@@H]1C(=O)N(C)[C@@H](CCCNC(=N)N)C(=O)N[C@@H](CO)C(=O)N[C@@H](CC(=O)O)C(=O)N[C@@H]([C@@H](C)O)C(=O)N[C@@H](CC(C)C)C(=O)N[C@H](C(=O)N[C@@H](Cc2cccc3ccccc23)C(=O)N[C@H](CCC(=O)O)C(=O)N(C)[C@H](CCCCN)C(N)=O)C(C)(C)SSC1(C)C [compound 12] (Ac-[Pen][NMeR]SDTL[Pen][1Nal][dE][dNMeK]-NH2; disulfide 1-7) | 25 to 50 | – | – | – |
| CC(=O)N[C@@H]1C(=O)N(C)[C@@H](CCCNC(=N)N)C(=O)N[C@@H](CO)C(=O)N[C@@H](CC(=O)O)C(=O)N[C@@H]([C@@H](C)O)C(=O)N[C@@H](CC(C)C)C(=O)N[C@H](C(=O)N[C@@H](Cc2cccc(C(N)=O)c2)C(=O)N[C@H](CCC(=O)O)C(=O)N[C@H](CCCCNC(=O)COCC(=O)NCCCC[C@@H](NC(=O)[C@@H](CCC(=O)O)NC(=O)[C@H](Cc2cccc(C(N)=O)c2)NC(=O)[C@H]2NC(=O)[C@H](CC(C)C)NC(=O)[C@H]([C@@H](C)O)NC(=O)[C@H](CC(=O)O)NC(=O)[C@H](CO)NC(=O)[C@H](CCCNC(=N)N)N(C)C(=O)[C@@H](NC(C)=O)C(C)(C)SSC2(C)C)C(N)=O)C(N)=O)C(C)(C)SSC1(C)C [compound 99] (I: Ac-[Pen][NMeR]SDTL[Pen][Phe(3-CONH2)][dE][dK]-NH2 / II: Ac-[Pen][NMeR]SDTL[Pen][Phe(3-CONH2)][dE][dK]-NH2; disulfide I:1-I:7, II:1-II:7; linker I:10-II:10 via Diglycolyl) | – | > 3 | 100 to 500 | – |
| CC(=O)N[C@@H]1C(=O)N(C)[C@@H](CCCNC(=N)N)C(=O)N[C@@H](CO)C(=O)N[C@@H](CC(=O)O)C(=O)N[C@@H]([C@@H](C)O)C(=O)N[C@@H](CC(C)C)C(=O)N[C@H](C(=O)N[C@@H](Cc2c[nH]c3ccccc23)C(=O)N[C@@H](CCC(=O)O)C(=O)O)C(C)(C)SSC1(C)C [compound 128] (Ac-[Pen][NMeR]SDTL[Pen]WE-OH; disulfide 1-7) | – | – | 50 to 100 | 3 |
| CC(=O)N[C@@H]1C(=O)N(C)[C@@H](CCCNC(=N)N)C(=O)N[C@@H](CO)C(=O)N[C@@H](CC(=O)O)C(=O)N[C@@H]([C@@H](C)O)C(=O)N[C@@H](CC(C)C)C(=O)N[C@H](C(=O)N[C@@H](Cc2ccc(F)cc2)C(=O)N[C@H](CCC(=O)O)C(=O)N[C@H](CCCCNC(=O)COCC(=O)NCCCC[C@@H](NC(=O)[C@@H](CCC(=O)O)NC(=O)[C@H](Cc2ccc(F)cc2)NC(=O)[C@H]2NC(=O)[C@H](CC(C)C)NC(=O)[C@H]([C@@H](C)O)NC(=O)[C@H](CC(=O)O)NC(=O)[C@H](CO)NC(=O)[C@H](CCCNC(=N)N)N(C)C(=O)[C@@H](NC(C)=O)C(C)(C)SSC2(C)C)C(N)=O)C(N)=O)C(C)(C)SSC1(C)C [compound 107] (I: Ac-[Pen][NMeR]SDTL[Pen][Phe(4-F)][dE][dK]-NH2 / II: Ac-[Pen][NMeR]SDTL[Pen][Phe(4-F)][dE][dK]-NH2; disulfide I:1-I:7, II:1-II:7; linker I:10-II:10 via Diglycolyl) | – | – | 25 to 50 | > 3 |
| CC(=O)N[C@@H]1C(=O)N(C)[C@@H](CCCNC(=N)N)C(=O)N[C@@H](CO)C(=O)N[C@@H](CC(=O)O)C(=O)N[C@@H]([C@@H](C)O)C(=O)N[C@@H](CC(C)C)C(=O)N[C@H](C(=O)N[C@@H](Cc2c[nH]c3ccccc23)C(=O)N[C@@H](CCC(=O)O)CC(=O)N[C@H](CCCCNC(=O)COCC(=O)NCCCC[C@@H](NC(=O)C[C@H](CCC(=O)O)NC(=O)[C@H](Cc2c[nH]c3ccccc23)NC(=O)[C@H]2NC(=O)[C@H](CC(C)C)NC(=O)[C@H]([C@@H](C)O)NC(=O)[C@H](CC(=O)O)NC(=O)[C@H](CO)NC(=O)[C@H](CCCNC(=N)N)N(C)C(=O)[C@@H](NC(C)=O)C(C)(C)SSC2(C)C)C(N)=O)C(N)=O)C(C)(C)SSC1(C)C [compound 1] (I: Ac-[Pen][NMeR]SDTL[Pen]W[β3hE][dK]-NH2 / II: Ac-[Pen][NMeR]SDTL[Pen]W[β3hE][dK]-NH2; disulfide I:1-I:7, II:1-II:7; linker I:10-II:10 via Diglycolyl) | – | – | 50 to 100 | > 3 |
| CC(=O)N[C@@H]1C(=O)N(C)[C@@H](CCCNC(=N)N)C(=O)N[C@@H](CO)C(=O)N[C@@H](CC(=O)O)C(=O)N[C@@H]([C@@H](C)O)C(=O)N[C@@H](CC(C)C)C(=O)N[C@H](C(=O)N[C@@H](Cc2c[nH]c3ccccc23)C(=O)N[C@@H](CCCNC(N)=O)C(=O)N[C@H](CCCCNC(=O)COCC(=O)NCCCC[C@@H](NC(=O)[C@H](CCCNC(N)=O)NC(=O)[C@H](Cc2c[nH]c3ccccc23)NC(=O)[C@H]2NC(=O)[C@H](CC(C)C)NC(=O)[C@H]([C@@H](C)O)NC(=O)[C@H](CC(=O)O)NC(=O)[C@H](CO)NC(=O)[C@H](CCCNC(=N)N)N(C)C(=O)[C@@H](NC(C)=O)C(C)(C)SSC2(C)C)C(N)=O)C(N)=O)C(C)(C)SSC1(C)C [compound 84] (I: Ac-[Pen][NMeR]SDTL[Pen]W[Cit][dK]-NH2 / II: Ac-[Pen][NMeR]SDTL[Pen]W[Cit][dK]-NH2; disulfide I:1-I:7, II:1-II:7; linker I:10-II:10 via Diglycolyl) | – | – | 10 to 25 | < 0.333 |
| CC(=O)N[C@@H]1C(=O)N(C)[C@@H](CCCNC(=N)N)C(=O)N[C@@H](CO)C(=O)N[C@@H](CC(=O)O)C(=O)N[C@@H]([C@@H](C)O)C(=O)N[C@@H](CC(C)C)C(=O)N[C@H](C(=O)N[C@@H](Cc2ccc3ccccc3c2)C(=O)N[C@H](CCC(=O)O)C(=O)N(C)[C@H](CCCCNC(=O)COCC(=O)NCCCC[C@H](C(N)=O)N(C)C(=O)[C@@H](CCC(=O)O)NC(=O)[C@H](Cc2ccc3ccccc3c2)NC(=O)[C@H]2NC(=O)[C@H](CC(C)C)NC(=O)[C@H]([C@@H](C)O)NC(=O)[C@H](CC(=O)O)NC(=O)[C@H](CO)NC(=O)[C@H](CCCNC(=N)N)N(C)C(=O)[C@@H](NC(C)=O)C(C)(C)SSC2(C)C)C(N)=O)C(C)(C)SSC1(C)C [compound 39] (I: Ac-[Pen][NMeR]SDTL[Pen][2Nal][dE][dNMeK]-NH2 / II: Ac-[Pen][NMeR]SDTL[Pen][2Nal][dE][dNMeK]-NH2; disulfide I:1-I:7, II:1-II:7; linker I:10-II:10 via Diglycolyl) | – | – | 10 to 25 | > 3 |
